Results taken from patent US20020169101A1, “Treatment of sexual dysfunction” (priority 1999, published 2002).

Experiments:
[1] = molecular target: T1, human GRP receptor (BB2) (Homo sapiens, UniProt P30550); test: BB2 binding assay ([125I][Tyr4]bombesin displacement, CHO-K1 membranes); settings: read-out: hBB2 Ki
T1 construct: expressed in transfected cells; membranes prepared from the cells
How it was run: (§1)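 Competition against <0.1 nM [125I][Tyr4]bombesin, 60 min for the NMB receptor and 90 min for the GRP receptor, using homogenised membranes of human-receptor-expressing CHO-K1 cells in pH 7.4 Tris buffer. Bound label was filtered and gamma-counted, with 1 μM bombesin as nonspecific. Ki values came from IC50 via Cheng-Prusoff.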

[2] = molecular target: T2, human NMB receptor (BB1) (Homo sapiens, UniProt P28336); test: BB1 binding assay ([125I][Tyr4]bombesin displacement, CHO-K1 membranes); settings: read-out: hBB1 Ki
T2 construct: expressed in transfected cells; membranes prepared from the cells
T2 sequence (P28336 whole entry): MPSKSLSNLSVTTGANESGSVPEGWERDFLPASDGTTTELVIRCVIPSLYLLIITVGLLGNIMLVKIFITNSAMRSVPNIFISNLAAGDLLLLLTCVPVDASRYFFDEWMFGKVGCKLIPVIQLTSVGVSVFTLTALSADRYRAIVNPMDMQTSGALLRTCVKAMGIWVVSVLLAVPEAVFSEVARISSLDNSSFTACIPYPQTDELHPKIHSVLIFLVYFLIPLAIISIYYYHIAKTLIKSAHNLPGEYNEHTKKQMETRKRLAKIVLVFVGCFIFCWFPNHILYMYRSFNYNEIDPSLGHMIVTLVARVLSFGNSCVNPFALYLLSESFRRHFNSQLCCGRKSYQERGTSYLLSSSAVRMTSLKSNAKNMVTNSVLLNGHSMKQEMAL
How it was run: as §1

[3] = system: sexual behaviour of normal male rats; test: Sexual behaviour of normal (sexually vigorous) male rats; format: in vivo, rat; settings: Compound (1) 15 mg/kg or Fluoxetine 20 mg/kg i.p. 1 h before test
Experimental: The potentially stimulatory effect of Compound (1) on male sexual behaviour has been tested on sexually vigorous rats. Sprague Dawley male rats (Charles River, UK) were kept, 4 rats per cage, in a reversed lighting regime (12:12 hours, lights off at 5.00 h), with free access to food and water. The rats were pre-selected by being presented with a receptive female at 4 days intervals, i.e. every third day (having 2 clear days between presentations) until completing 6-7 […] of baseline determination. The animals showing consistently vigorous behaviour (ejaculatory latencies <300s) were chosen for further experiments (n—24). Animals were randomised into three groups. All animals received all three treatments following a latin-square design. Treatments were administered once a week, with a baseline test in between treatments (4 days intervals between baseline and test day). Treatments were Compound (1) (15 mg/kg, dissolved in 50% 2-hydroxypropyl-β-cyclodextrin in saline), vehicle, or Fluoxetine (20 mg/kg dissolved in 100% DMSO). All treatments were administered i.p. in a 1 ml/kg volume, 1 h before tests.
For all the sexual behaviour tests, the males were placed in an observation arena (50-60 cm diameter), starting 5 hours into the dark cycle and observed under red illumination. Three to 4 minutes after placing the male in the arena, a receptive female (ovariectomised, bearing a 7 mm Silastic implant of oestradiol benzoate) was introduced to the arena and the following parameters noted: Mount Latency: time (in seconds) taken between introduction of female and first mount. A maximum time of 15 minutes (900 seconds) was allowed, and the test terminated if no mounts were recorded within that time (FIG. 11), Intromission Latency: time (in seconds) taken between introduction of female and first intromission (FIG. 12), Number of Mounts: to reach ejaculation. When ejaculation was not reached, the number of mounts was not analyzed, Number of Intromissions: to reach ejaculation. When ejaculation was not reached, the number of intromissions was not analyzed (FIG. 13 is number of mounts+intromissions), Ejaculation Latency: time (in seconds) taken from first intromission to ejaculation. A maximum time of 30 minutes (1800 seconds) was given, and the test terminated if ejaculation was not achieved in that time (FIG. 14), and Refractory Period: time (in seconds) taken from ejaculation to the first mount of the next series of sexual activity. In those animals reaching ejaculation the test was terminated at the end of the refractory period, as indicated by the first mount of the next sexual cycle (FIG. 15).
A one-way ANOVA followed by Dunnett's t test was used to compare treated vs vehicle groups each day of testing, for all the sexual behaviour parameters. (*P<0.05, **P<0.01; n=15-16).

[4] = system: female rat sexual proceptivity (NMB-inhibited); test: Inhibition of female rat proceptivity by i.c.v. NMB and its antagonism; format: in vivo; settings: progesterone 0.5 mg s.c. 4 h; NMB 100 ng i.c.v. 10 min before test in progesterone-treated rats; Compound (1) 15 mg/kg i.p. 1 h before NMB (FIG. 5)
Experimental: Ovariectomised female rats (Sprague Dawley, obtained from Charles River, UK) were stereotaxically implanted (coordinates 0.89 mm behind Bregma, 1.3 mm lateral and 2.5 mm vertical) with stainless steel cannulae (6 mm long, O.D. 0.75 mm), held in place with dental cement. Animals were housed in groups of three and returned to a reversed lighting system of 12 h light:dark (lights off 5.00-17.00 h). Correct placement of the cannulae was assessed post-mortem. Rats were used for tests two weeks after ovariectomy (one week after cannulation). The experiments started at least 5 h into the dark period. Forty eight hours before tests, the animals were primed with 5 μg oestradiol benzoate (OB) (s.c, in corn oil) and adapted to the apparatus (in the absence of stimuli animals) for 10 min on 2 consecutive days prior testing. The 10 min test was carried out as previously described. The difference in the percentage of time spent investigating male minus female was calculated, out of the total time spent investigating stimuli.
Progesterone (Prog, 0.5 mg/0.1 ml) was dissolved in corn oil and administered subcutaneously (s.c.), 4 h before test, to induce proceptive behaviour. Compound (1) (15 mg/kg, i.p.) was dissolved in 50% 2-hydroxypropyl-β-cyclodextrin in saline and administered 1 h before the i.c.v. administration. Neuromedin B was obtained from Bachem, UK. It was dissolved in isotonic saline and administered i.c.v. over a 30 sec period, with the aid of a pump set to deliver a flow of 10 μl/min, 10 min before tests. The dosing volume was 5 μl/rat. Each rat received a total amount of 100 ng.

T1 sequence (P30550 whole entry): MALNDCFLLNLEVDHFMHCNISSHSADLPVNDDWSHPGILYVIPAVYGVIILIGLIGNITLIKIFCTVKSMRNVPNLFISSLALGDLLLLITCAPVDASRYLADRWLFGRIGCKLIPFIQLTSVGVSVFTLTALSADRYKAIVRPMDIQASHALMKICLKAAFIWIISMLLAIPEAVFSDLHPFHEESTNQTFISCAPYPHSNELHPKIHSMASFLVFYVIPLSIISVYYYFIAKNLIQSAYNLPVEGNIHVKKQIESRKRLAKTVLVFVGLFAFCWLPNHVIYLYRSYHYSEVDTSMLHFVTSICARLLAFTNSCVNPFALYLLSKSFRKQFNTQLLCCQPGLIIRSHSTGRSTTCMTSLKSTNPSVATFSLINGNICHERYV

Row | Ki [1] [nM] | Ki [2] [nM] | Structure (SMILES) | Mount Latency ([3]; vs vehicle (FIG. 11)) | Intromission Latency ([3]; vs vehicle (FIG. 12)) | number of mounts and intromissions required to achieve ejaculation ([3]; vs vehicle (FIG. 13)) | Ejaculation Latency ([3]; vs vehicle (FIG. 14)) | Refractory Period ([3]; vs vehicle (FIG. 15)) | proceptivity (percentage of time investigating male minus female stimulus) [4]
1 | 46 | 0.25 | C[C@@](Cc1c[nH]c2ccccc12)(NC(=O)Nc1ccc([N+](=O)[O-])cc1)C(=O)NCC1(c2ccc(N)cc2)CCCCC1 [Compound 3, (2S)-N-{[1-(4-aminophenyl)cyclohexyl]methyl}-3-(1H-indol-3-yl)-2-methyl-2-{[(4-nitroanilino)-carbonyl]amino}propanamide] |  |  |  |  |  | 
2 |  |  | COc1ccc(C2(CNC(=O)[C@](C)(Cc3c[nH]c4ccccc34)NC(=O)Nc3ccc([N+](=O)[O-])cc3)CCCCC2)nc1 [Compound (1), (S) 3-(1H-Indol-3-yl)-N-[1-(5-methoxy-pyridin-2-yl)-cyclohexyl-methyl]-2-methyl-2-[3-(4-nitro-phenyl)-ureido]-propionamide] | no effect on any of the parameters studied | no effect on any of the parameters studied | no effect on any of the parameters studied | no effect on any of the parameters studied | no effect on any of the parameters studied | prevented the inhibitory effect of NMB
